Measurements as given in patent US9278962B2 (Cytokinetics, Inc., priority 2011, dated 2016).

tested on: rabbit skeletal myofibrils (approximately 90% fast fibers); test: Activation of fast skeletal myofibrils (PUMA coupled-enzyme ATPase assay, AC1.4); type: biochemical; settings: Table 2; concentration at which the compound increased enzymatic activity by 40%; calcium at pCa25

Row | Mean AC1.4 | SMILES
1 | D (D=>20 uM) | Oc1ccc(CCNc2nc(Cc3ccc(F)cc3)ns2)cc1 [4-[2-({3-[(4-fluorophenyl)methyl]-1,2,4-thiadiazol-5-yl}amino)ethyl]phenol]
2 | B (B=1-10 uM) | CC(C)(O)/C=C/c1nsc(NCC(C)(C)c2ccc(F)cc2)n1 [(3E)-4-(5-{[2-(4-fluorophenyl)-2-methylpropyl]amino}(1,2,4-thiadiazol-3-yl))-2-methylbut-3-en-2-ol]
3 | C (C=10-20 uM) | CC(C)(CNc1nc(CN2CCNCC2)ns1)c1ccc(F)cc1 [[2-(4-fluorophenyl)-2-methylpropyl][3-(piperazinylmethyl)(1,2,4-thiadiazol-5-yl)]amine]
4 | B (B=1-10 uM) | C[C@H](CNc1nc(-c2cncc(C(N)=O)c2)ns1)c1ccc(F)cc1 [5-(5-{[(2S)-2-(4-fluorophenyl)propyl]amino}-1,2,4-thiadiazol-3-yl)pyridine-3-carboxamide]
5 | B (B=1-10 uM) | COc1ccc(-c2nsc(NCC(C)(C)c3ccc(F)cc3)n2)cn1 [[2-(4-fluorophenyl)-2-methylpropyl][3-(6-methoxy(3-pyridyl))(1,2,4-thiadiazol-5-yl)]amine]
6 | D (D=>20 uM) | CC(C)(CNc1nc(CNCCCO)ns1)c1ccc(F)cc1 [3-{[(5-{[2-(4-fluorophenyl)-2-methylpropyl]amino}-1,2,4-thiadiazol-3-yl)methyl]amino}propan-1-ol]
7 | C (C=10-20 uM) | Clc1ccc(Cc2nsc(NCCc3ccc(Cl)c(Cl)c3)n2)cc1 [[2-(3,4-dichlorophenyl)ethyl]{3-[(4-chlorophenyl)methyl](1,2,4-thiadiazol-5-yl)}amine]
8 | C (C=10-20 uM) | COC(=O)N1CCN(Cc2nsc(NCC(C)(C)c3ccc(F)cc3)n2)CC1 [methyl 4-[(5-{[2-(4-fluorophenyl)-2-methylpropyl]amino}-1,2,4-thiadiazol-3-yl)methyl]piperazinecarboxylate]
9 | C (C=10-20 uM) | Fc1ccc(Cc2nsc(NCCc3ccc(F)c(F)c3)n2)cc1 [[2-(3,4-difluorophenyl)ethyl]{3-[(4-fluorophenyl)methyl](1,2,4-thiadiazol-5-yl)}amine]
10 | B (B=1-10 uM) | CN(C)C(=O)c1cccc(-c2nsc(NCC(C)(C)c3ccc(F)cc3)n2)c1 [[3-(5-{[2-(4-fluorophenyl)-2-methylpropyl]amino}(1,2,4-thiadiazol-3-yl))phenyl]-N,N-dimethylcarboxamide]
11 | B (B=1-10 uM) | CC(C)(CNc1nc(Cl)ns1)c1ccc(F)cc1 [3-Chloro-N-(2-(4-fluorophenyl)-2-methylpropyl)-1,2,4-thiadiazol-5-amine]
12 | B (B=1-10 uM) | COc1cccc(Cc2nsc(NCCc3ccc(F)cc3)n2)c1 [[2-(4-fluorophenyl)ethyl]{3-[(3-methoxyphenyl)methyl](1,2,4-thiadiazol-5-yl)}amine]
13 | B (B=1-10 uM) | Cc1ccc(Cc2nsc(NCCc3ccc(Cl)c(Cl)c3)n2)cc1 [[2-(3,4-dichlorophenyl)ethyl]{3-[(4-methylphenyl)methyl](1,2,4-thiadiazol-5-yl)}amine]
14 | B (B=1-10 uM) | CNC(=O)c1ccc(-c2nsc(NCC(C)(C)c3ccc(F)cc3)n2)cn1 [[5-(5-{[2-(4-fluorophenyl)-2-methylpropyl]amino}(1,2,4-thiadiazol-3-yl))(2-pyridyl)]-N-methylcarboxamide]
15 | A (A=<1 uM) | COc1ccc(Cc2nsc(NCC(C)(C)c3ccc(F)cc3)n2)cc1 [[2-(4-fluorophenyl)-2-methylpropyl]{3-[(4-methoxyphenyl)methyl](1,2,4-thiadiazol-5-yl)}amine]
16 | C (C=10-20 uM) | Clc1ccc(CCNc2nc(Cc3ccc(Cl)cc3)ns2)cc1 [[2-(4-chlorophenyl)ethyl]{3-[(4-chlorophenyl)methyl](1,2,4-thiadiazol-5-yl)}amine]
17 | B (B=1-10 uM) | CC(C)(CNc1nc(CCCNC(=O)CO)ns1)c1ccc(F)cc1 [N-[3-(5-{[2-(4-fluorophenyl)-2-methylpropyl]amino}(1,2,4-thiadiazol-3-yl))propyl]-2-hydroxyacetamide]

same assay, conditions: Table 3; concentration at which the compound increased enzymatic activity by 40%; calcium at pCa25

Row | Mean AC1.4 | SMILES
18 | D (D=>20 uM) | N#Cc1ccc(-c2nnc(NCC3(c4ncccc4F)CCC3)s2)cc1 [4-(5-((1-(3-fluoropyridin-2-yl)cyclobutyl)methylamino)-1,3,4-thiadiazol-2-yl)benzonitrile]
19 | A (A=<1 uM) | N#Cc1ccc(Cl)c(-c2nnc(NC[C@]3(c4ncccc4F)C[C@H](F)C3)s2)c1 [4-chloro-3-(5-(((trans)-3-fluoro-1-(3-fIuoropyridin-2-yl)cyclobutyl)methylamino)-1,3,4-thiadiazol-2-yl)benzonitrile]
20 | B (B=1-10 uM) | Fc1cccnc1C1(CNc2nnc(-c3cccs3)s2)CCC1 [N-((1-(3-fluoropyridin-2-yl)cyclobutyl)methyl)-5-(thiophen-2-yl)-1,3,4-thiadiazol-2-amine]
21 | A (A=<1 uM) | Fc1ccc(Br)cc1-c1nnc(NC[C@]2(c3ncccc3F)C[C@@H](F)C2)s1 [5-(5-bromo-2-fluorophenyl)-N-(((cis)-3-fluoro-1-(3-fluoropyridin-2-yl)cyclobutyl)methyl)-1,3,4-thiadiazol-2-amine]
22 | B (B=1-10 uM) | Cc1cc(C(N)=O)sc1-c1nnc(NC[C@]2(c3ncccc3F)C[C@H](F)C2)s1 [5-(5-((3-fluoro-1-(3-fluoropyridin-2-yl)cyclobutyl)methylamino)-1,3,4-thiadiazol-2-yl)-4-methylthiophene-2-carboxamide]

same assay, conditions: Table 4; concentration at which the compound increased enzymatic activity by 40%; calcium at pCa25

Row | Mean AC1.4 | SMILES
23 | B (B=1-10 uM) | Fc1cccnc1C1(CNc2nc3ccc(Cl)cc3s2)CCC1 [6-chloro-N-((1-(3-fluoropyridin-2-yl)cyclobutyl)methyl)benzo[d] thiazol-2-amine]

same assay, conditions: Table 5; concentration at which the compound increased enzymatic activity by 40%; calcium at pCa25

Row | Mean AC1.4 | SMILES
24 | D (D=>20 uM) | Cn1nc(NC2(c3ncccc3F)CCC2)nc1-c1cc(C(N)=O)ccc1F [4-fluoro-3-(5-(1-(3-fluoropyridin-2-yl)cyclobutylamino)-2-methyl-2H-1,2,4-triazol-3-yl)benzamide]
